Tested on: SK-N-SH cells
Experiment: MTT viability with dexamethasone
Format: cell-based, human
Details: 24 h
Description: Preliminary results: The expression of GILZ in human neuroblastoma cells was evaluated. […] After resting, the cells were cultured with increasing concentrations of dexamethasone (Dex: 0-10 μM) for 24 h and viability was determined by the MTT assay by measuring the absorbance of the intracellular formazon resulting from the reduction of the yellow tetrazolium MTT by the cell metabolic activity. Absorbance of vehicle treated cells was taken as 100% viable. GILZ expression was measured in protein extracts from separate SK-N-SH cultures by Western blot analysis using GILZ mAb [Santa Cruz Biotechnology, Dallas, Tex.]. Total RNA isolated from similar SK-N-SH cultures was reverse transcribed and the GILZ mRNA was amplified using the SYBR green qPCR mix (SA Biosciences, Fredrick, Md.) on the ABI Prism 7000 system (Applied Biosystem, Calif.).

C[C@@H]1C[C@H]2[C@@H]3CCC4=CC(=O)C=C[C@]4(C)[C@@]3(F)[C@@H](O)C[C@]2(C)[C@@]1(O)C(=O)CO [DEX, dexamethasone]
toxicity (MTT viability) (1 μM): not toxic
reduction of viability (10 μM): 25%
